Publication PMC5622368, “Redundancy between nucleases required for homologous recombination promotes PARP inhibitor resistance in the eukaryotic model organism Dictyostelium” (Nucleic Acids Research, 2017)

Target: T1, Adprt2 (Dictyostelium discoideum, UniProt Q8I7C6)
T1 construct: recombinant His-tagged, expressed and purified from bacteria
T1 sequence (Q8I7C6 1-700): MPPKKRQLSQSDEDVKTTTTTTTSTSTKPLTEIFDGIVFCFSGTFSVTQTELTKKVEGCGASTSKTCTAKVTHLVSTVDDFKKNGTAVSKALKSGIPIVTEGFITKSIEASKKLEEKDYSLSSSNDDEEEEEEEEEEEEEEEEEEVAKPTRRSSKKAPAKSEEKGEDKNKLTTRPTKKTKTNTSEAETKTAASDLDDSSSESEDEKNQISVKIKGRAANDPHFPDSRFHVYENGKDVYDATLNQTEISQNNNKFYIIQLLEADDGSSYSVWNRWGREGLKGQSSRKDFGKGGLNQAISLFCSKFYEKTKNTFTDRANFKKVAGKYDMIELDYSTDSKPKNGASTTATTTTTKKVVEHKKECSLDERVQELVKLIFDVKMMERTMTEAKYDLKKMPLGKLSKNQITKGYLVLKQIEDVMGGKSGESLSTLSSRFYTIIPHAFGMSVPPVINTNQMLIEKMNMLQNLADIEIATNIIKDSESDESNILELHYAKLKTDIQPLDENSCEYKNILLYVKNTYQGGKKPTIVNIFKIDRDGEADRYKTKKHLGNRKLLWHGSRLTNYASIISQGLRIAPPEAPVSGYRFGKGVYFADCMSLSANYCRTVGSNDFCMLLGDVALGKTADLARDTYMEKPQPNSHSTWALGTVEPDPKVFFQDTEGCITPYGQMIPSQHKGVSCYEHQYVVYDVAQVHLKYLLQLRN
Assay: auto-ADP-ribosylation, […]-NAD+, SDS-PAGE and phosphorimager
Format: biochemical
Details: room temperature

[1] = 75 uM NAD+, 100 nM 32P-NAD+, 1 uM enzyme, Tris-HCl pH 8, 2 mM MgCl2, sheared salmon sperm DNA, 30 min

SMILES | auto-ADP-ribosylation, 32P-NAD+, SDS-PAGE and phosphorimager (75 uM NAD+ plus 100 nM 32P-NAD+ (labelled compound), pH 8, 2 mM MgCl2, sheared salmon sperm DNA) | auto-ADP-ribosylation, 32P-NAD+, SDS-PAGE and phosphorimager [1]
NC(=O)c1ccc[n+]([C@@H]2O[C@H](COP(=O)(O)OP(=O)(O)OC[C@H]3O[C@@H](n4cnc5c(N)ncnc54)[C@H](O)[C@@H]3O)[C@@H](O)[C@H]2O)c1 [NAD+] | ADP-ribosylated species that co-migrates with recombinant Adprt1a or Adprt2 in our assays | –
Cc1nc2c(O)cccc2c(=O)[nH]1 [NU1025] | – | these agents inhibit auto-ribosylation of the SSB-responsive ART Adprt2
O=C(c1cc(Cc2n[nH]c(=O)c3ccccc23)ccc1F)N1CCN(C(=O)C2CC2)CC1 [olaparib] | – | olaparib and rucaparib are more effective at inhibiting Adprt1a than Adprt2
CNCc1ccc(-c2[nH]c3cc(F)cc4c3c2CCNC4=O)cc1 [rucaparib] | – | olaparib and rucaparib are more effective at inhibiting Adprt1a than Adprt2
